Values of other authors as cited in US20260200930A1, “PRODRUGS OF TEMOZOLOMIDE TO FACILITATE DELIVERY INTO BRAIN TUMORS” (H. LEE MOFFITT CANCER CENTER AND RESEARCH INSTITUTE, INC., priority 2022, published 2026).

Columns and labels:
[1] = oral chemotherapy; % of the highest plasma concentration

Question: Which “brain concentration relative to highest plasma concentration that can safely be obtained” value [1] does the source give for `Cn1nnc2c(C(N)=O)ncn2c1=O` [TMZ, temozolomide] here?
Answer: Its value is “about 40%”.

Question: And the solubility in water?
Answer: The solubility in water was “insoluble in water”.
